In patent publication US20250161290A1, “CO-CRYSTALS” (CereSpir Incorporated, priority 2021, published 2025):
Values after ≈ are worked out from the molar mass of the structure shown. “Also recorded” adds a separate entry of the source.

Key:
[1] = Thermogravimetric analysis (TGA), degradation onset; format: physicochemical; details: 10° C. per minute, nitrogen purge
Procedure: TGA data are collected using a TA Instruments Discovery TGA equipped with an autosampler. Typically, 2-5 mg of sample is placed in a pre-tared, Tzero aluminum pan either as a hermetically sealed pan which would be automatically punched open before sample loading for analysis, or as an open pan. A 10° C. per minute ramp rate from ambient temperature to 375° C. using a 25 mL/min nitrogen purge is used. The instrument control and data analysis are operated under TRIOS software.

[2] = Dynamic Vapor Sorption (DVS) water sorption/desorption; format: physicochemical; details: for Mass Change: 25° C.
Procedure: (§1) Samples are analyzed using a TA Instruments Q5000SA gravimetric water sorption analyzer. The relative humidity (RH) is adjusted in 10% RH increments between 5-95% (±1% RH) at 25° C. (±0.5%° C.). The mass of a sample is continuously monitored and recorded with respect to RH and time with criteria for mass equilibrium set as a percent mass change <0.0100 for 5 minutes with a time limit of 720 minutes per step. The humidity is controlled by mixing dry and wet nitrogen streams with a total flow rate of 200 mL/min. The instrument control and data analysis are operated under Advantage for Q Series and Universal Analysis software, respectively.

[3] = in vivo, cited from earlier work
[4] = Coformer and CSP-1103 aqueous solubility assessment (qualitative); format: physicochemical; details: water, thermodynamic from solid, 0.05 M aqueous concentration, gentle heating at 45° C. for 1 minute
Procedure: In a 1-dram vial, enough solvent was added to achieve a 0.05 M aqueous concentration along with some gentle heating at 45° C. for 1 minute to determine if the material would completely dissolve. After 24 hours, observations were made to determine if the material had remained in solution.

rats after TBI = details: cited from earlier work
[5] = Solubility assessment of CSP-1103 in organic solvents (qualitative); format: physicochemical; details: organic solvent or mixture, thermodynamic from solid
[6] = XRPD of pre-exposed and post-exposed DVS samples (solid form stability); format: physicochemical; details: two DVS sorption/desorption cycles, 5-95% RH, 25° C.
Procedure: X-ray powder diffraction analyses are obtained using a BRUKER D8 ADVANCE equipped with a Cu radiation source operated at 40 kV and 40 mA (λ=1.54 Å after Ni filtering) configured in a Bragg-Brentano geometry, equipped with a 90-position AUTO-CHANGER and a silicon strip detector (SSD160-2). A coupled theta-two theta continuous PSD (Position Sensitive Device) fast scan from 4 to 40 degrees are collected over approximately 32 minutes (0.5 sec/0.01° step). A sample is placed onto a polished zero-background silicon wafer by gently distributing onto the flat surface and is analyzed as a flat plate specimen.
as §1

[7] = system: patients with mild cognitive impairment (MCI); details: listed as itanapraced, cited from earlier work
[8] = Consolidated qualitative solubility results (Tables 6 and 8); details: for consolidated solubility result: Table 6; for qualitative solvent solubility overlaid with cocrystallization screens' results: Table 8, numbers are molar concentrations pending investigation
[9] = Solubility assessment of CSP-1103 in organic solvents (qualitative); format: physicochemical; details: organic solvent or mixture, thermodynamic from solid, qualitative solubility at 0.2 M, gentle heating 45° C. 1 minute if required
Procedure: The solubility assessment of CSP-1103 was then performed. Approximately 0.05 mmol of CSP-1103 was weighed out into a 1-dram vial, enough solvent was added to achieve a 0.2 M concentration, and if required, gentle heating was applied at 45° C. for 1 minute. […] After 12 hours, observations were made to determine if the API had remained in solution.

[10] = Phase 2, MCI patients, CSF / brain

In the case of `O=C(O)C1(c2ccc(-c3ccc(Cl)c(Cl)c3)c(F)c2)CC1` [CSP-1103, 1-(3′,4′-dichloro-2-fluoro[1,1′-biphenyl]-4-yl)-cyclopropanecarboxylic acid], the “degradation start by TGA” value [1] is reported as over 200 °C, the “Mass Change” value ([2]; Cycle 1 of 2, Adsorption, RH 5 to 95%) is reported as 1.10% and the “Mass Change” value ([2]; Cycle 1 of 2, Desorption, RH 95 to 5%) is reported as −1.11%. The “Mass Change” value ([2]; Cycle 2 of 2, Adsorption, RH 5 to 95%) was 1.13%, the “Mass Change” value ([2]; Cycle 2 of 2, Desorption, RH 95 to 5%) was −1.13% and the hygroscopicity classification ([2]; at 95% RH, Ph. Eur. 9.0 (slightly: <2% and ≥0.2%; non: <0.2%)) was “slightly hygroscopic”. For the same compound, the “average water sorbed or desorbed” value ([2]; between 5-95% RH) was 1.1±0.0%, the oral bioavailability ([3]; po) was “good oral bioavailability” and the “penetration into the brain” value [3] was “substantial penetration into the brain”. The plasma half-life [3] was “long plasma half-life”, the solubility [4] was under 50 mM and the “accumulation of hypertrophic microglia in the injured brain” value (rats after TBI) was “prevented the accumulation of hypertrophic microglia”. For the same compound, the acute lung injury (rats after TBI) was “attenuated”, the neurological injury (rats after TBI) was “attenuated” and the solubility ([5]; MTBE, qualitative solubility at 0.1 M, gentle heating if required) was over 100 mM. The solubility ([5]; acetone, qualitative solubility at 0.05 M, gentle heating if required) was over 50 mM, the solubility ([5]; acetone, qualitative solubility at 0.1 M, gentle heating if required) was under 100 mM and the solubility ([5]; acetonitrile, qualitative solubility at 0.05 M, gentle heating if required) was under 50 mM. The solubility ([5]; acetonitrile, qualitative solubility at 0.1 M, gentle heating if required) was under 100 mM, the solubility ([5]; ethanol, qualitative solubility at 0.05 M, gentle heating if required) was over 50 mM and the solubility ([5]; ethanol, qualitative solubility at 0.1 M, gentle heating if required) was under 100 mM. The solubility ([5]; ethyl acetate, qualitative solubility at 0.1 M, gentle heating if required) was over 100 mM, the solubility ([5]; ethyl acetate, qualitative solubility at 0.2 M, gentle heating 45° C. 1 minute if required) was under 200 mM and the solubility ([5]; methanol, qualitative solubility at 0.05 M, gentle heating if required) was over 50 mM. The solubility ([5]; methanol, qualitative solubility at 0.1 M, gentle heating if required) was under 100 mM, the solubility ([5]; methanol, qualitative solubility at 0.2 M, gentle heating 45° C. 1 minute if required) was under 200 mM and the “solid form change after DVS exposure (XRPD pre- vs post-exposed)” value [6] was “no solid form change”. The “solid form change after DVS exposure (XRPD pre- vs post-exposed)” value ([6]; listed as CSP) was “no solid state form changes”, the solubility (physchem; MTBE, organic solvent or mixture) was 100 mM (≈ 32.5 mg/mL) and the solubility (physchem; acetonitrile, organic solvent or mixture) was under 50 mM. The solubility (physchem; ethyl acetate, organic solvent or mixture) was 100 mM (≈ 32.5 mg/mL), the solubility (physchem; water) was under 50 mM and the safety and tolerability ([7]; Phase 2, MCI patients treated up to two years) was “good safety and tolerability; also recorded: well tolerated”. The “TNF-α (neuroinflammatory mediator)” value [7, 10] was “beneficial dose-related CSF differences; also recorded: dose-related statistically significant reductions”, the “soluble CD40 ligand (neuroinflammatory mediator)” value [7, 10] was “beneficial dose-related CSF differences; also recorded: dose-related statistically significant reductions” and the “total tau (marker of neurodegeneration)” value [7, 10] was “beneficial dose-related CSF differences; also recorded: dose-related statistically significant reductions”. For the same compound, the cognitive function ([7]; throughout the duration of the trial) was “stable cognition; also recorded: stable cognitive function”, the consolidated solubility result ([8]; MTBE) was “✓” and the “qualitative solvent solubility overlaid with cocrystallization screens' results” value (“qualitative solvent solubility overlaid” for short) ([8]; acetone (BP 56° C.)) was 50 mM. The consolidated solubility result ([8]; acetone) was “✓”, the “qualitative solvent solubility overlaid” value ([8]; ethanol (BP 79° C.)) was 50 mM and the consolidated solubility result ([8]; ethanol) was “✓”. For the same compound, the consolidated solubility result ([8]; ethyl acetate) was “✓”, the “qualitative solvent solubility overlaid” value ([8]; methanol (BP 65° C.)) was 50 mM and the consolidated solubility result ([8]; methanol) was “✓”. For the same compound, the solubility ([9]; MTBE) was under 200 mM, the solubility ([9]; acetone) was under 200 mM and the solubility ([9]; acetonitrile) was under 200 mM. It also gave a solubility ([9]; ethanol) of under 200 mM.
